In ChEMBL document CHEMBL4840322, “Synthesis and biological evaluation of novel coumarin derivatives in rhabdoviral clearance” (Eur J Med Chem, 2021):
The source made the active and inactive calls. No cut-off for these calls is given here.

Assays:
[1] = tested on: Infectious hematopoietic necrosis virus; assay: Inhibition of Infectious hematopoietic necrosis virus glycoprotein G assessed as antiviral activity at 25 uM measured by RT-qPCR method relative to control
[2] = tested on: Infectious hematopoietic necrosis virus; assay: Antiviral activity against Infectious hematopoietic necrosis virus infected in Fathead minnow EPC cells assessed as inhibition of G protein expression measured after 72 hrs by RT-qPCR method; assay type: functional, organism-based
[3] = tested on: Infectious hematopoietic necrosis virus; assay: Antiviral activity against Infectious hematopoietic necrosis virus infected in Fathead minnow EPC cells assessed as decrease in virus-induced apoptosis by measuring caspase-8 activity at 25 uM measured after 72 hrs by Caspase activity assay relative to control; assay type: functional; design: scale not given: the % may be the effect or the level left
[4] = Cytotoxicity against Fathead minnow EPC cells at 25 uM; assay type: cell-based; settings: pimephales promelas
[5] = tested on: Infectious hematopoietic necrosis virus; assay: Antiviral activity against Infectious hematopoietic necrosis virus infected in Rainbow trout fish assessed as decrease of viral proliferation in fish brain ip measured after 4 days; assay type: functional, organism-based; settings: time 4.0 day
[6] = tested on: Infectious hematopoietic necrosis virus; assay: Antiviral activity against Infectious hematopoietic necrosis virus infected in Fathead minnow EPC cells assessed as decrease in virus-induced apoptosis by measuring caspase-3 activity at 25 uM measured after 72 hrs by Caspase activity assay relative to control; assay type: functional; design: scale not given: the % may be the effect or the level left
[7] = Induction of apoptosis in Fathead minnow EPC cells assessed as necrotic cells measured after 72 hrs by Annexin V/PI staining based flowcytometry method (reference value: 0.29%); assay type: functional, Pimephales promelas
[8] = tested on: Sprivivirus cyprinus; assay: Antiviral activity against spring viremia of carp virus infected in Fat head minnow EPC cells assessed as inhibition of N protein gene expression by RT-qPCR method relative to control; assay type: functional, organism-based
[9] = tested on: Infectious hematopoietic necrosis virus; assay: Antiviral activity against Infectious hematopoietic necrosis virus infected in Fathead minnow EPC cells assessed as decrease in virus-induced apoptosis by measuring early apoptotic cells measured after 72 hrs by Annexin V/PI staining based flowcytometry method (reference value: 3.8%); assay type: functional; design: scale not given: the % may be the effect or the level left
[10] = tested on: Infectious hematopoietic necrosis virus; assay: Antiviral activity against Infectious hematopoietic necrosis virus infected in Fathead minnow EPC cells assessed as decrease in virus-induced apoptosis by measuring late apoptotic cells measured after 72 hrs by Annexin V/PI staining based flowcytometry method (reference value: 1.95%); assay type: functional; design: scale not given: the % may be the effect or the level left
[11] = tested on: Infectious hematopoietic necrosis virus; assay: Antiviral activity against Infectious hematopoietic necrosis virus infected in Fathead minnow EPC cells assessed as suppression of virus-induced cytopathic effect at 100 uM; assay type: functional, organism-based
[12] = tested on: Infectious hematopoietic necrosis virus; assay: Antiviral activity against Infectious hematopoietic necrosis virus infected in Fathead minnow EPC cells assessed as inhibition of virus-cell recognition at 25 uM measured after 30 mins by RT-qPCR method; assay type: functional, organism-based
[13] = tested on: Infectious hematopoietic necrosis virus; assay: Antiviral activity against Infectious hematopoietic necrosis virus infected in Fathead minnow EPC cells assessed as inhibition of matrix protein gene expression at 0.1 to 100 uM measured after 72 hrs by RT-qPCR method relative to control; assay type: functional; design: scale not given: the % may be the effect or the level left; settings: dose 0.1-100 µM
[14] = tested on: Infectious hematopoietic necrosis virus; assay: Antiviral activity against Infectious hematopoietic necrosis virus infected in Fathead minnow EPC cells assessed as inhibition of phospho protein gene expression at 0.1 to 100 uM measured after 72 hrs by RT-qPCR method relative to control; assay type: functional; design: scale not given: the % may be the effect or the level left; settings: dose 0.1-100 µM
[15] = tested on: Micropterus salmoides rhabdovirus; assay: Antiviral activity against micropterus salmoides rhabd-ovirus infected in Fat head minnow EPC cells assessed as inhibition of N protein gene expression at 0.1 to 100 uM by RT-qPCR method relative to control; assay type: functional; design: scale not given: the % may be the effect or the level left; settings: dose 0.1-100 µM
[16] = tested on: Infectious hematopoietic necrosis virus; assay: Antiviral activity against Infectious hematopoietic necrosis virus infected in Fathead minnow EPC cells assessed as inhibition of polymerase protein gene expression at 0.1 to 100 uM measured after 72 hrs by RT-qPCR method relative to control; assay type: functional; design: scale not given: the % may be the effect or the level left; settings: dose 0.1-100 µM
[17] = tested on: Infectious hematopoietic necrosis virus; assay: Antiviral activity against Infectious hematopoietic necrosis virus infected in Fathead minnow EPC cells assessed as decrease in virus-induced apoptosis by measuring appearance of normal sized nuclei in cells at 100 uM measured after 72 hrs by Flowcytometry assay; assay type: functional, organism-based
[18] = tested on: Infectious hematopoietic necrosis virus; assay: Antiviral activity against Infectious hematopoietic necrosis virus infected in Fathead minnow EPC cells assessed as inhibition of nucleoprotein gene expression at 0.1 to 100 uM measured after 72 hrs by RT-qPCR method relative to control; assay type: functional; design: scale not given: the % may be the effect or the level left; settings: dose 0.1-100 µM
[19] = tested on: Sprivivirus cyprinus; assay: Antiviral activity against spring viremia of carp virus infected in Fat head minnow EPC cells assessed as inhibition of N protein gene expression at 0.1 to 100 uM by RT-qPCR method relative to control; assay type: functional; design: scale not given: the % may be the effect or the level left; settings: dose 0.1-100 µM
[20] = tested on: Infectious hematopoietic necrosis virus; assay: Antiviral activity against Infectious hematopoietic necrosis virus infected in Rainbow trout fish assessed as decrease of mortality rate ip measured after 4 days; assay type: functional, organism-based; settings: time 4.0 day
[21] = tested on: Infectious hematopoietic necrosis virus; assay: Antiviral activity against Infectious hematopoietic necrosis virus infected in Rainbow trout fish assessed as decrease of viral proliferation in fish spleen ip measured after 4 days; assay type: functional, organism-based; settings: time 4.0 day
[22] = tested on: Infectious hematopoietic necrosis virus; assay: Antiviral activity against Infectious hematopoietic necrosis virus infected in Fathead minnow EPC cells assessed as decrease in virus-induced apoptosis by measuring formation of few apoptotic bodies in cells at 100 uM measured after 72 hrs by Flowcytometry assay; assay type: functional, organism-based
[23] = tested on: Micropterus salmoides rhabdovirus; assay: Antiviral activity against micropterus salmoides rhabdo-virus infected in Grass carp GCO cells assessed as reduction of viral titre value measured after 48 to 96 hrs; assay type: functional, organism-based; settings: time 48-96 hrs
[24] = tested on: Infectious hematopoietic necrosis virus; assay: Antiviral activity against Infectious hematopoietic necrosis virus infected in Fathead minnow EPC cells assessed as decrease in virus-induced apoptosis by measuring changes in cell morphology at 10 uM measured by ultrastructural analysis; assay type: functional, organism-based
[25] = tested on: Infectious hematopoietic necrosis virus; assay: Antiviral activity against Infectious hematopoietic necrosis virus infected in Fathead minnow EPC cells assessed as decrease in virus-induced apoptosis by measuring viable cells measured after 72 hrs by Annexin V/PI staining based flowcytometry method (reference value: 94%); assay type: functional
[26] = tested on: Sprivivirus cyprinus; assay: Antiviral activity against spring viremia of carp virus infected in Fathead minnow EPC cells assessed as reduction of viral titre value measured after 48 to 96 hrs; assay type: functional, organism-based; settings: time 48-96 hrs
[27] = tested on: Infectious hematopoietic necrosis virus; assay: Antiviral activity against Infectious hematopoietic necrosis virus infected in Fathead minnow EPC cells assessed as decrease in virus-induced apoptosis by measuring caspase-9 activity at 25 uM measured after 72 hrs by Caspase activity assay relative to control; assay type: functional; design: scale not given: the % may be the effect or the level left
[28] = tested on: Infectious hematopoietic necrosis virus; assay: Antiviral activity against Infectious hematopoietic necrosis virus infected in Fathead minnow EPC cells assessed as decrease in virus-induced apoptosis by measuring necrotic cells measured after 72 hrs by Annexin V/PI staining based flowcytometry method (reference value: 0.29%); assay type: functional; design: scale not given: the % may be the effect or the level left
[29] = tested on: Infectious hematopoietic necrosis virus; assay: Antiviral activity against Infectious hematopoietic necrosis virus infected in Fathead minnow EPC cells assessed as reduction of virus titre values at 0.25 to 25 uM measured after 72 to 96 hrs; assay type: functional, organism-based; settings: dose 0.25-25 µM, time 72-96 hrs
[30] = Induction of apoptosis in Fathead minnow EPC cells assessed as early apoptotic cells measured after 72 hrs by Annexin V/PI staining based flowcytometry method (reference value: 3.8%); assay type: functional, Pimephales promelas
[31] = tested on: Micropterus salmoides rhabdovirus; assay: Antiviral activity against micropterus salmoides rhabdo-virus infected in Fat head minnow EPC cells assessed as inhibition of N protein gene expression by RT-qPCR method relative to control; assay type: functional, organism-based
[32] = Induction of apoptosis in Fathead minnow EPC cells assessed as viable cells measured after 72 hrs by Annexin V/PI staining based flowcytometry method (reference value: 94%); assay type: functional, Pimephales promelas
[33] = tested on: Infectious hematopoietic necrosis virus; assay: Antiviral activity against Infectious hematopoietic necrosis virus infected in Rainbow trout fish assessed as decrease of viral proliferation in fish kidney ip measured after 4 days; assay type: functional, organism-based; settings: time 4.0 day
[34] = Cytotoxicity against Grass carp GCO cells at 25 uM; assay type: cell-based; settings: ctenopharyngodon idellus
[35] = tested on: Infectious hematopoietic necrosis virus; assay: Antiviral activity against Infectious hematopoietic necrosis virus infected in Fathead minnow EPC cells at 25 uM preincubated for 1 to 4 hrs followed by compound washout and infected to EPC cells and measured after 72 hrs by RT-qPCR assay; assay type: functional, organism-based; settings: time 1-4 hrs
[36] = Induction of apoptosis in Fathead minnow EPC cells assessed as late apoptotic cells measured after 72 hrs by Annexin V/PI staining based flowcytometry method (reference value: 1.95%); assay type: functional, Pimephales promelas

Structure (SMILES): CCCOc1cc(=O)oc2ccccc12
- inhibition [1]: 9.48%

Structure (SMILES): COc1ccc2ccc(=O)oc2c1
- inhibition [1]: 10.8%

Structure (SMILES): COc1ccc2c(C)cc(=O)oc2c1
- inhibition [1]: 2.13%

Structure (SMILES): Cc1cc(=O)oc2cc(OCCCCCCn3ccnc3)ccc12
- IC50 [2]: 7.63 µM
- inhibition [1]: 82.1%

Structure (SMILES): O=c1ccc2ccc(OCCn3cnc4ccccc43)cc2o1
- inhibition [1]: 5.58%

Structure (SMILES): CCCCOc1ccc2ccc(=O)oc2c1
- inhibition [1]: 22%

Structure (SMILES): Nc1ccccc1SCCCCCCOc1ccc2ccc(=O)oc2c1
- inhibition [1]: 49.3%

Structure (SMILES): O=c1ccc2ccc(OCCCCn3cnc4ccccc43)cc2o1
- inhibition [1]: 35.1%

Structure (SMILES): C=C(C)COc1ccc2ccc(=O)oc2c1
- inhibition [1]: 14%

Structure (SMILES): C=C(C)COc1ccc2c(C)cc(=O)oc2c1
- inhibition [1]: 9.37%

Structure (SMILES): O=c1ccc2ccc(OCCCCCCN3CCCCC3)cc2o1
- inhibition [1]: 5.32%

Structure (SMILES): O=c1ccc2ccc(OCCCCBr)cc2o1
- inhibition [1]: 2.59%

Structure (SMILES): C=CCOc1ccc2ccc(=O)oc2c1
- inhibition [1]: -5.86%

Structure (SMILES): CCCCOc1cc(=O)oc2ccccc12
- inhibition [1]: 14.5%

Structure (SMILES): Cc1cc(=O)oc2cc(OCCCCCCBr)ccc12
- inhibition [1]: -2.34%

Structure (SMILES): O=c1ccc2ccc(OCCBr)cc2o1
- inhibition [1]: 0.13%

Structure (SMILES): NC(=O)c1ncn([C@@H]2O[C@H](CO)[C@@H](O)[C@H]2O)n1
- inhibition [1]: 99.1%

Structure (SMILES): Cc1cn(CCCCCCOc2ccc3c(C)cc(=O)oc3c2)cn1
- inhibition [1]: 65.1%

Structure (SMILES): O=c1ccc2ccc(OCCCCCCn3cnc4ccccc43)cc2o1
- Activity [3]: 98%
- Activity [4]: Non-Toxic
- Activity [5]: Active
- Activity [6]: 383%
- Activity [7]: 0.4%
- IC50 [8]: 1.68 µM
- Activity [9]: 3.47%
- Activity [10]: 2.55%
- Activity [11]: Active
- Activity [12]: inactive
- Activity [13]: >95%
- Activity [14]: >95%
- Activity [15]: 99.08%
- Activity [16]: >95%
- Activity [17]: Active
- Activity [18]: >95%
- Activity [19]: 97.86%
- Activity [20]: Active
- Activity [21]: Active
- Activity [22]: Active
- Activity [23]: Active
- Activity [24]: Active
- Activity [25]: 93.7%
- Activity [26]: Active
- Activity [27]: 50%
- IC50 [2]: 2.96 µM
- Activity [28]: 0.26%
- Activity [29]: Active
- inhibition [1]: 99.2%
- Activity [30]: 2.35%
- IC50 [31]: 2.12 µM
- Activity [32]: 95.1%
- Activity [33]: Active
- Activity [34]: Non-Toxic
- Activity [35]: inactive
- Activity [36]: 2.2%

Structure (SMILES): O=c1ccc2ccc(OCCCCCCSc3cccc(O)c3)cc2o1
- inhibition [1]: 13.8%

Structure (SMILES): COc1cc(=O)oc2ccccc12
- inhibition [1]: 19.5%

Structure (SMILES): Cc1cc(=O)oc2cc(OCCCCCCn3cnc4ccccc43)ccc12
- IC50 [2]: 4.76 µM
- inhibition [1]: 94.1%

Structure (SMILES): Cc1cc(=O)oc2cc(OCCCCCCn3ccnc3C)ccc12
- IC50 [2]: 6.34 µM
- inhibition [1]: 89.5%

Structure (SMILES): CCCOc1ccc2c(C)cc(=O)oc2c1
- inhibition [1]: -1.75%

Structure (SMILES): CCCCOc1ccc2c(C)cc(=O)oc2c1
- inhibition [1]: -4.37%

Structure (SMILES): O=c1ccc2ccc(OCCCCCCn3cncn3)cc2o1
- inhibition [1]: 39.2%

Structure (SMILES): O=c1ccc2ccc(OCCCn3cnc4ccccc43)cc2o1
- inhibition [1]: 27.2%

Structure (SMILES): C=CCOc1cc(=O)oc2ccccc12
- inhibition [1]: 2.46%

Structure (SMILES): O=c1ccc2ccc(OCCCCCCCCn3cnc4ccccc43)cc2o1
- inhibition [1]: 46.1%

Structure (SMILES): C=C(C)COc1cc(=O)oc2ccccc12
- inhibition [1]: 9.47%

Structure (SMILES): O=c1ccc2ccc(OCCCBr)cc2o1
- inhibition [1]: -8.24%

Structure (SMILES): Cc1cc(=O)oc2cc(OCCCCCCn3cncn3)ccc12
- inhibition [1]: 25.2%

Structure (SMILES): CCCOc1ccc2ccc(=O)oc2c1
- inhibition [1]: 5.73%
